Results published in patent US9951094B2, “Phosphole compound and fluorescent dye containing the same” (NATIONAL UNIVERSITY CORPORATION NAGOYA UNIVERSITY, priority 2014, dated 2018).
Marks after values point to notes of the source that are not given here.

How the values were obtained:
Format in all cases: physicochemical
[1] = UV-Vis absorption spectra in solvents
Procedure: (§1) The optical properties of compounds 1 to 3, 6b to 6d, 7a, and 7b were evaluated. Ultraviolet-visible (UV-Vis) absorption and fluorescence spectra were measured with an UV-Vis-NIR spectrophotometer UV-3150 (Shimadzu) and a fluorescence spectrophotometer F-4500 (Hitachi), respectively. Absolute fluorescence quantum yield was determined with an absolute PL quantum yield measurement instruments C9920-02 or C11347-01 (Hamamatsu Photonics). Sample solutions of all the samples were prepared using spectral grade solvents purchased from Nacalai Tesque, and were each measured with a 1 cm square quartz cuvette. The concentrations of each sample for the measurement of UV-Vis absorption spectra were set for ca. 10^−5 M. The concentrations of each sample for the measurement of fluorescence spectra were adjusted in a range where concentration quenching would not occur. For the measurement of absolute fluorescence quantum yield, each sample solution was deaerated by purging with an argon gas stream for several minutes prior to the measurements. The orientation polarizabilities Δf of hexane, ethyl acetate, and methanol, which are not shown in the Tables, were −0.000518, 0.201, and 0.309, respectively.

[2] = Fluorescence spectra in solvents
Procedure: as §1

[3] = Absolute fluorescence quantum yield in solvents
Procedure: as §1

[4] = Photobleaching resistance, 403 nm laser irradiation of acetonitrile solutions; details: acetonitrile solution, 403 nm laser light, 120 minutes; FIG. 2
Procedure: Solutions of compounds 1, 2 (6a), 6b, 7a, 7b, and a known fluorescent dye Alexa-430 each in acetonitrile were prepared so that their absorbances are in the range from 0.39 to 0.44. The concentration of each compound in the solution was 2.35×10^−5 M for compound 1, 2.17×10^−5 M for compound 2 (6a), 1.25×10^−5 M for compound 6b, 3.30×10^−5 M for compound 7a, and 2.04×10^−5 M for compound 7b. […] Immediately after preparation of each acetonitrile solution, the molar absorption coefficient of the acetonitrile solution was measured. Then, the molar absorption coefficient of the acetonitrile solution was measured after each of irradiations with 403 nm laser light for 20 minutes, 60 minutes, and 120 minutes, and the relative absorbance was determined relative to the molar absorption coefficient before laser light irradiation (immediately after preparation of the solution).

[5] = cyclohexane, apparatus C11347-01, self-absorption correction
[6] = cyclohexane, apparatus C11347-01
[7] = ethyl acetate, apparatus C11347-01

Absorption Maximum Wavelength λ max ([1]; CH2Cl2) [nm]	Molar Absorption Coefficient ϵ ([1]; CH2Cl2)	Absorption Maximum Wavelength λ max ([1]; DMF) [nm]	Molar Absorption Coefficient ϵ ([1]; DMF)	Absorption Maximum Wavelength λ max ([1]; benzene) [nm]	Molar Absorption Coefficient ϵ ([1]; benzene)	Emission Maximum Wavelength λ em ([2]; CH2Cl2) [nm]	Emission Maximum Wavelength λ em ([2]; DMF) [nm]	Structure (SMILES)	Absorption Maximum Wavelength λ max ([1]; CH3CN) [nm]	Absorption Maximum Wavelength λ max ([1]; EtOH) [nm]	Molar Absorption Coefficient ϵ ([1]; EtOH)	Absorption Maximum Wavelength λ max ([1]; cyclohexane) [nm]	Molar Absorption Coefficient ϵ ([1]; cyclohexane)	Emission Maximum Wavelength λ em ([2]; CH3CN) [nm]	Emission Maximum Wavelength λ em ([2]; EtOH) [nm]	Emission Maximum Wavelength λ em ([2]; cyclohexane) [nm]	Fluorescence Quantum Yield φF ([3]; CH3CN, apparatus C11347-01)	Molar Absorption Coefficient ϵ ([1]; CH3CN)	Fluorescence Quantum Yield φF ([3]; EtOH, apparatus C11347-01)	Fluorescence Quantum Yield φF [3, 6]	further results
416	1.76 10^4M^−1 cm^−1	409	1.77 10^4M^−1 cm^−1	416	1.88 10^4M^−1 cm^−1	561	598	O=P1(c2ccccc2)C(c2ccc(N(c3ccccc3)c3ccccc3)cc2)=C(c2ccccc2)c2ccccc21 (stereo not shown) [Compound 1, 2-[4-(N,N-diphenylamino)phenyl]-1,3-diphenylbenzo[b]phosphole-P-oxide]	404	417	1.68 10^4M^−1 cm^−1	412	1.82 10^4M^−1 cm^−1	597	595	508	0.67^a	–	–	–	Absorption Maximum Wavelength λ max ([1]; CHCl3): 418 nm; Molar Absorption Coefficient ϵ ([1]; CHCl3): 1.78 10^4M^−1 cm^−1; Fluorescence in various solvents from low-polarity to high-polarity solvents [2]: strong fluorescence; Emission Maximum Wavelength λ em ([2]; CHCl3): 551 nm; Shift of fluorescence wavelength as the polarity of the solvent increases ([2]; Table 1 solvents): shifted to the longer wavelength; Emission Maximum Wavelength λ em ([2]; benzene): 531 nm; Fluorescence Quantum Yield φF ([3]; CH2Cl2, apparatus C9920-02): 0.84^b; Fluorescence Quantum Yield φF ([3]; CHCl3, apparatus C9920-02): 0.89^b; Fluorescence Quantum Yield φF ([3]; DMF, apparatus C9920-02): 0.71^b; Fluorescence Quantum Yield φF ([3]; benzene, apparatus C9920-02): 0.89^b; Fluorescence Quantum Yield φF [3, 5]: 0.92^a,c
413	1.75 10^4M^−1 cm^−1	409	1.71 10^4M^−1 cm^−1	414	1.91 10^4M^−1 cm^−1	543	564	O=P1(c2ccccc2)C(c2ccc(N(c3ccccc3)c3ccccc3)cc2)=Cc2ccccc21 (stereo not shown) [Compound 2, 2-[4-(N,N-diphenylamino)phenyl]-1-phenylbenzo[b]phosphole-P-oxide]	406	416	1.78 10^4M^−1 cm^−1	410	1.95 10^4M^−1 cm^−1	571	565	456	0.61	1.77 10^4M^−1 cm^−1	0.57	–	Emission Maximum Wavelength λ em ([2]; benzene): 497 nm; Fluorescence Quantum Yield φF ([3]; CH2Cl2, apparatus C11347-01): 0.91; Fluorescence Quantum Yield φF ([3]; DMF, apparatus C11347-01): 0.67; Fluorescence Quantum Yield φF ([3]; benzene, apparatus C11347-01): 0.97; Fluorescence Quantum Yield φF [3, 5]: 0.93^b
412	1.71 10^4M^−1 cm^−1	412	1.73 10^4M^−1 cm^−1	410	1.89 10^4M^−1 cm^−1	532	559	CN(C)c1ccc(C2=Cc3ccccc3P2(=O)c2ccccc2)cc1 (stereo not shown) [Compound 3, 2-[4-(N,N-dimethylamino)phenyl]-1-phenylbenzo[b]phosphole-P-oxide]	408	415	1.69 10^4M^−1 cm^−1	401	–	558	565	456	0.89	1.73 10^4M^−1 cm^−1	0.82	–	Emission Maximum Wavelength λ em ([2]; benzene): 507 nm; Fluorescence Quantum Yield φF ([3]; CH2Cl2, apparatus C11347-01): 0.93; Fluorescence Quantum Yield φF ([3]; DMF, apparatus C11347-01): 0.88; Absolute fluorescence quantum yield compared with compound 2 ([3]; Tables 2 and 3): higher absolute fluorescence quantum yield than compound 2; Fluorescence Quantum Yield φF ([3]; benzene, apparatus C11347-01): 0.95; Fluorescence Quantum Yield φF [3, 5]: 0.91^b
–	–	–	–	–	–	–	–	O=P1(c2ccccc2)C(c2cc3c4c(c2)CCCN4CCC3)=Cc2cc3ccccc3cc21 (stereo not shown) [Compound 6c]	425	429	2.33 10^4M^−1 cm^−1	420	2.38 10^4M^−1 cm^−1	580	583	466	0.71	2.35 10^4M^−1 cm^−1	0.67	0.90	Absorption Maximum Wavelength λ max ([1]; ethyl acetate): 420 nm; Molar Absorption Coefficient ϵ ([1]; ethyl acetate): 2.38 10^4M^−1 cm^−1; Emission Maximum Wavelength λ em ([2]; ethyl acetate): 538 nm; Fluorescence Quantum Yield φF [3, 7]: 0.90
–	–	–	–	–	–	–	–	O=P1(c2ccccc2)C(c2ccc(N(c3ccccc3)c3ccccc3)cc2)=Cc2ccc3ccccc3c21 (stereo not shown) [Compound 6d]	439	448	1.94 10^4M^−1 cm^−1	440	1.81 10^4M^−1 cm^−1	620	611	495	0.58	2.07 10^4M^−1 cm^−1	0.51	0.92	Absorption Maximum Wavelength λ max ([1]; ethyl acetate): 436 nm; Molar Absorption Coefficient ϵ ([1]; ethyl acetate): 2.02 10^4M^−1 cm^−1; Emission Maximum Wavelength λ em ([2]; ethyl acetate): 564 nm; Fluorescence Quantum Yield φF [3, 7]: 0.90
–	–	–	–	–	–	–	–	O=P1(c2ccccc2)C2=C(c3ccccc31)C(c1ccccc1)(c1ccccc1)c1cc(N(c3ccccc3)c3ccccc3)ccc12 (stereo not shown) [Compound 7a]	428	439	1.60 10^4M^−1 cm^−1	424	1.60 10^4M^−1 cm^−1	590	589	482	0.79	1.62 10^4M^−1 cm^−1	0.70	0.88	Absorption Maximum Wavelength λ max ([1]; ethyl acetate): 424 nm; Molar Absorption Coefficient ϵ ([1]; ethyl acetate): 1.61 10^4M^−1 cm^−1; Emission Maximum Wavelength λ em ([2]; ethyl acetate): 540 nm; Fluorescence Quantum Yield φF [3, 7]: 0.90; Resistance to photobleaching (relative absorbance) [4]: outstanding resistance to photobleaching

Structure (SMILES)	Absorption Maximum Wavelength λ max ([1]; CH2Cl2) [nm]	Molar Absorption Coefficient ϵ ([1]; CH2Cl2)	Absorption Maximum Wavelength λ max ([1]; DMF) [nm]	Molar Absorption Coefficient ϵ ([1]; DMF)	Absorption Maximum Wavelength λ max ([1]; benzene) [nm]	Molar Absorption Coefficient ϵ ([1]; benzene)	Emission Maximum Wavelength λ em ([2]; CH2Cl2) [nm]	Emission Maximum Wavelength λ em ([2]; DMF) [nm]	Absorption Maximum Wavelength λ max ([1]; CH3CN) [nm]	Absorption Maximum Wavelength λ max ([1]; EtOH) [nm]	Molar Absorption Coefficient ϵ ([1]; EtOH)	Absorption Maximum Wavelength λ max ([1]; cyclohexane) [nm]	Molar Absorption Coefficient ϵ ([1]; cyclohexane)	Emission Maximum Wavelength λ em ([2]; CH3CN) [nm]	Emission Maximum Wavelength λ em ([2]; EtOH) [nm]	Emission Maximum Wavelength λ em ([2]; cyclohexane) [nm]	Fluorescence Quantum Yield φF ([3]; CH3CN, apparatus C11347-01)	Molar Absorption Coefficient ϵ ([1]; CH3CN)	Fluorescence Quantum Yield φF ([3]; EtOH, apparatus C11347-01)	Fluorescence Quantum Yield φF [3, 6]	further results
O=P1(c2ccccc2)C(c2ccc(N(c3ccccc3)c3ccccc3)cc2)=Cc2cc3ccccc3cc21 (stereo not shown) [Compound 6b]	414	3.66 10^4M^−1 cm^−1	–	–	–	–	533	–	405	413	2.67 10^4M^−1 cm^−1	409	4.17 10^4M^−1 cm^−1	563	550	450	0.80	3.25 10^4M^−1 cm^−1	0.79	0.90	Fluorescence Quantum Yield φF ([3]; CH2Cl2, apparatus C11347-01): 0.95; Resistance to photobleaching (relative absorbance) [4]: outstanding resistance to photobleaching
